In patent US20260374773A1, “MULTI-CYCLIC IRAK AND FLT3 INHIBITING COMPOUNDS AND USES THEREOF” (CHILDREN'S HOSPITAL MEDICAL CENTER, priority 2022, published 2026):
pIC50: −log10 of the molar value. Where two headings read alike, the source gives them in different places.

How the values were obtained:
NF-κB = NF-κB SEAP reporter assay in THP-1-Blue NF-κB cells, hIL1B stimulated; assay type: cell-based; conditions: THP-1-Blue cells, 1 ng/ml hIL1B, 24 h, read-out: NF-κB IL1B IC50
Experimental: (§1) THP-1-Blue NF-κB cells (InvivoGen) carrying a stable integrated NF-κB-inducible secreted embryonic alkaline phosphatase (SEAP) reporter construct were plated at a concentration of 1×10^5 cells per well. The cells were stimulated with Pam3CSK4 (1 ng/ml) or hIL1B (1 ng/ml). After 10-20 minutes, the cells were then treated with vehicle (DMSO) or serial dilutions of the test compounds (10 doses tested for each test compound, with a […] starting at 1 μM or 3 μM) with a final volume of 200 μL for 24 hours at 37 °C. After 24 hours, the cells were centrifuged and 20 μL supernatant was incubated with 180 μL QUANTI-Blue reagent at 37 °C for 30-60 minutes. The levels of NF-κB-induced was measured in a microplate reader at 620 nm.
as §1, with “1 mM” for “1 μM”, “3 mM)” for “3 μM)”, “200 mL” for “200 μL”, “20 mL” for “20 μL”, “180 mL” for “180 μL”, “NF-κB-induced gene expression were” for “NF-κB-induced was”

MOLM14 F691L cells = experiment: MOLM14 F691L cell viability (Cell Titer Glo); assay type: cell-based; conditions: Homo sapiens
Experimental: Both cell lines have activated FLT3 receptors, each of which carry additional resistance mutations in the kinase domain (D835Y and F691L, respectively).
MOLM14 D835Y and MOLM14 F691L cells were grown in RPMI-1640 media supplemented with 20% fetal bovine serum (FBS). For viability/cytotoxicity assessments, cells were seeded into 1536-well white polystyrene tissue culture-treated Greiner plates using a Multidrop Combi dispenser (ThermoFisher), in final volume 5 μL of growth media per well, at a density of 1000 cells per well. After cell addition, 23 nL of test compound were transferred into individual wells (22 doses tested for each test compound, with a 1:2 dilution series starting at 10 μM) via a 1536 pin-tool. Bortezomib (final concentration 2.3 μM) was used as a positive control for cell cytotoxicity. Plates were incubated for 48 hours at standard incubator conditions covered by a stainless steel gasketed lid to prevent evaporation. 48 hours post compound addition, 3 μL of Cell Titer Glo (Promega) were added to each well and plates were incubated at room temperature for 15 minutes with the stainless-steel lid in place. Luminescence readings were taken using a Viewlux imager (PerkinElmer) with a 2 second exposure time per plate.

| SMILES | pIC50 (NF-κB; Table 15) | pIC50 (MOLM14 F691L cells; MOLM-14, Table 16, 48 h) | pIC50 (NF-κB; Table 21) | other results |
| --- | --- | --- | --- | --- |
| COc1cn2ncc(-c3nc(N[C@@H]4CCCNC4)ccc3F)c2nc1C1CC1 [Compound 2, (R)-6-(5-cyclopropyl-6-methoxypyrazolo[1,5-a]pyrimidin-3-yl)-5-fluoro-N-(piperidin-3-yl)pyridin-2-amine] | 7.03 | 7.85 |  |  |
| COc1cn2ncc(-c3nc(N[C@@H]4CCCNC4)c(C#N)cc3F)c2nc1C(C)(C)O [Compound 9, (R)-5-fluoro-6-(5-(2-hydroxypropan-2-yl)-6-methoxypyrazolo[1,5-a]pyrimidin-3-yl)-2-(piperidin-3-ylamino)nicotinonitrile] | 7.06 | 6.85 |  |  |
| COc1cn2ncc(-c3nc(N[C@@H]4CCCNC4)c(F)cc3F)c2nc1C(C)(C)O [Compound 11, (R)-2-(3-(3,5-difluoro-6-(piperidin-3-ylamino)pyridin-2-yl)-6-methoxypyrazolo[1,5-a]pyrimidin-5-yl)propan-2-ol] | 7.00 | 6.85 |  |  |
| COc1cn2ncc(-c3nc(N[C@H]4CNCC[C@@H]4F)c(F)cc3F)c2nc1C1CC1 [Compound 22, 6-(5-cyclopropyl-6-methoxypyrazolo[1,5-a]pyrimidin-3-yl)-3,5-difluoro-N-((3S,4S)-4-fluoropiperidin-3-yl)pyridin-2-amine] | 7.72 |  |  |  |
| COc1cn2ncc(-c3ccc(F)c(N[C@H]4CNCC[C@@H]4F)n3)c2nc1C1CC1 [Compound 6, 6-(5-cyclopropyl-6-methoxypyrazolo[1,5-a]pyrimidin-3-yl)-3-fluoro-N-((3S,4S)-4-fluoropiperidin-3-yl)pyridin-2-amine] | 6.66 | 7.15 |  |  |
| COc1cn2ncc(-c3nc(N[C@@H]4CCCNC4)ncc3F)c2nc1C(C)(C)O [Compound 4a, (R)-2-(3-(5-fluoro-2-(piperidin-3-ylamino)pyrimidin-4-yl)-6-methoxypyrazolo[1,5-a]pyrimidin-5-yl)propan-2-ol] |  |  |  | pIC50 (MOLM14 F691L cells; MOLM-14, Table 22, 48 h): 7.00 |
| COc1cn2ncc(-c3ccc(F)c(N[C@@H]4CCCNC4)n3)c2nc1C1CC1 [Compound 5, (R)-6-(5-cyclopropyl-6-methoxypyrazolo[1,5-a]pyrimidin-3-yl)-3-fluoro-N-(piperidin-3-yl)pyridin-2-amine] |  | 6.90 |  |  |
| COc1cn2ncc(-c3nc(N[C@H]4CNC[C@@H]4F)c(F)cc3F)c2nc1C(C)(C)O [Compound 12, 2-(3-(3,5-difluoro-6-(((3S,4S)-4-fluoropyrrolidin-3-yl)amino)pyridin-2-yl)-6-methoxypyrazolo[1,5-a]pyrimidin-5-yl)propan-2-ol] | 7.39 | 6.35 |  |  |
| COc1cn2ncc(-c3nc(N[C@H]4CNC[C@@H]4F)ncc3F)c2nc1C(C)(C)O [Compound 5a, 2-(3-(5-fluoro-2-(((3S,4S)-4-fluoropyrrolidin-3-yl)amino)pyrimidin-4-yl)-6-methoxypyrazolo[1,5-a]pyrimidin-5-yl)propan-2-ol] |  |  |  | pIC50 (MOLM14 F691L cells; MOLM-14, Table 22, 48 h): 6.65 |
| COc1cn2ncc(-c3cccc(N[C@@H]4CCCNC4)n3)c2nc1C1CC1 [Compound 20, (R)-6-(5-cyclopropyl-6-methoxypyrazolo[1,5-a]pyrimidin-3-yl)-N-(piperidin-3-yl)pyridin-2-amine] | 6.19 |  |  |  |
| COc1cn2ncc(-c3nc(N[C@H]4CNCC[C@@H]4F)ccc3F)c2nc1C1CC1 [Compound 3, 6-(5-cyclopropyl-6-methoxypyrazolo[1,5-a]pyrimidin-3-yl)-5-fluoro-N-((3S,4S)-4-fluoropiperidin-3-yl)pyridin-2-amine] | 7.59 | 8.22 |  |  |
| COc1cn2ncc(-c3cccc(N[C@H]4CNC[C@@H]4F)n3)c2nc1C1CC1 [Compound 19, 6-(5-cyclopropyl-6-methoxypyrazolo[1,5-a]pyrimidin-3-yl)-N-((3S,4S)-4-fluoropyrrolidin-3-yl)pyridin-2-amine] | 7.01 |  |  |  |
| COc1cn2ncc(-c3nc(N[C@H]4CNCC[C@@H]4F)c(F)cc3F)c2nc1C(C)(C)O [Compound 13, 2-(3-(3,5-difluoro-6-(((3S,4S)-4-fluoropiperidin-3-yl)amino)pyridin-2-yl)-6-methoxypyrazolo[1,5-a]pyrimidin-5-yl)propan-2-ol] | 7.14 | 6.95 |  |  |
| COc1cn2ncc(-c3ccnc(N[C@H]4CNCC[C@@H]4F)n3)c2nc1C(C)(C)O [Compound 3a, 2-(3-(2-(((3S,4S)-4-fluoropiperidin-3-yl)amino)pyrimidin-4-yl)-6-methoxypyrazolo[1,5-a]pyrimidin-5-yl)propan-2-ol] |  |  |  | pIC50 (MOLM14 F691L cells; MOLM-14, Table 22, 48 h): 6.25 |
| COc1cn2ncc(-c3nc(N[C@H]4CNCC[C@@H]4F)c(C#N)cc3F)c2nc1C(C)(C)O [Compound 10, 5-fluoro-2-(((3S,4S)-4-fluoropiperidin-3-yl)amino)-6-(5-(2-hydroxypropan-2-yl)-6-methoxypyrazolo[1,5-a]pyrimidin-3-yl)nicotinonitrile] | 7.39 |  |  |  |
| COc1cn2ncc(-c3cccc(N[C@H]4CNCC[C@@H]4F)n3)c2nc1C1CC1 [Compound 21, 6-(5-cyclopropyl-6-methoxypyrazolo[1,5-a]pyrimidin-3-yl)-N-((3S,4S)-4-fluoropiperidin-3-yl)pyridin-2-amine] | 6.47 |  |  |  |

More lines, main results first:

| pIC50 (NF-κB; Table 15) | pIC50 (MOLM14 F691L cells; MOLM-14, Table 16, 48 h) | pIC50 (NF-κB; Table 21) | SMILES | other results |
| --- | --- | --- | --- | --- |
|  |  | 7.26 | COc1cn2ncc(-c3cncc(N[C@H]4CNCC[C@@H]4F)n3)c2nc1C1CC1 [Compound 12a, 6-(5-cyclopropyl-6-methoxypyrazolo[1,5-a]pyrimidin-3-yl)-N-((3S,4S)-4-fluoropiperidin-3-yl)pyrazin-2-amine] |  |
|  |  | 7.57 | COc1cn2ncc(-c3nc(N[C@H]4CNC[C@@H]4F)ncc3F)c2nc1C1CC1 [Compound 13a, 4-(5-cyclopropyl-6-methoxypyrazolo[1,5-a]pyrimidin-3-yl)-5-fluoro-N-((3S,4S)-4-fluoropyrrolidin-3-yl)pyrimidin-2-amine] |  |
|  |  | 7.66 | COc1cn2ncc(-c3nc(N[C@@H]4CCCNC4)ncc3F)c2nc1C1CC1 [Compound 14a, (R)-4-(5-cyclopropyl-6-methoxypyrazolo[1,5-a]pyrimidin-3-yl)-5-fluoro-N-(piperidin-3-yl)pyrimidin-2-amine] |  |
|  |  | 7.28 | COc1cn2ncc(-c3nc(N[C@H]4CNCC[C@@H]4F)ncc3F)c2nc1C(C)(C)O [Compound 6a, 2-(3-(5-fluoro-2-(((3S,4S)-4-fluoropiperidin-3-yl)amino)pyrimidin-4-yl)-6-methoxypyrazolo[1,5-a]pyrimidin-5-yl)propan-2-ol] | pIC50 (MOLM14 F691L cells; MOLM-14, Table 22, 48 h): 7.35 |
|  |  | 6.61 | COc1cn2ncc(-c3cncc(N[C@@H]4CCCNC4)n3)c2nc1C1CC1 [Compound 11a, (R)-6-(5-cyclopropyl-6-methoxypyrazolo[1,5-a]pyrimidin-3-yl)-N-(piperidin-3-yl)pyrazin-2-amine] |  |
|  |  | 7.34 | COc1cn2ncc(-c3ccnc(N[C@H]4CNC[C@@H]4F)n3)c2nc1C1CC1 [Compound 8a, 4-(5-cyclopropyl-6-methoxypyrazolo[1,5-a]pyrimidin-3-yl)-N-((3S,4S)-4-fluoropyrrolidin-3-yl)pyrimidin-2-amine] |  |
|  |  | 7.30 | COc1cn2ncc(-c3ccnc(N[C@H]4CNCC[C@@H]4F)n3)c2nc1C1CC1 [Compound 7a, 4-(5-cyclopropyl-6-methoxypyrazolo[1,5-a]pyrimidin-3-yl)-N-((3S,4S)-4-fluoropiperidin-3-yl)pyrimidin-2-amine] |  |
|  |  | 8.10 | COc1cn2ncc(-c3nc(N[C@H]4CNCC[C@@H]4F)ncc3F)c2nc1C1CC1 [Compound 15a, 4-(5-cyclopropyl-6-methoxypyrazolo[1,5-a]pyrimidin-3-yl)-5-fluoro-N-((3S,4S)-4-fluoropiperidin-3-yl)pyrimidin-2-amine] |  |
